The target in assay [1] is T1, branched-chain aminotransferase (MtIlvE) (Mycobacterium tuberculosis, UniProt P9WQ75). The assay can be described thus: […]. Format: biochemical. The conditions noted are these: read-out: Ki.
The target of assay [2] is T1, branched-chain aminotransferase (MtIlvE). The assay can be described thus: biochemical. Type of assay: binding.

T1 sequence (P9WQ75 whole entry): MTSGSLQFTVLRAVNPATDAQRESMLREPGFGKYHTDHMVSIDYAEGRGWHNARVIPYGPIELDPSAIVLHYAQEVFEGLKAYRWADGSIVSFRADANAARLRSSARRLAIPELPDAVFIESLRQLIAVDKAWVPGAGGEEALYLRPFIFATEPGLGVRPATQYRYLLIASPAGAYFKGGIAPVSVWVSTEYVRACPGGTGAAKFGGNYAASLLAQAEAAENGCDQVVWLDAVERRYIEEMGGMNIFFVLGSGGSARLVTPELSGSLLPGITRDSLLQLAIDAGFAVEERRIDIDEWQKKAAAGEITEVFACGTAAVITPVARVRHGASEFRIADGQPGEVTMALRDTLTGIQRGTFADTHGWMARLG

For `N[C@H]1CONC1=O` [LCS, L-cycloserine], the KI (inactivation) in assay [1] amounted to 88 µM. In the case of `N[C@@H]1CON=C1O` [DCS, D-Cycloserine], the second-order inactivation constant (kinact/KI) in assay [2] is 0.12 M⁻¹ s⁻¹.

For the origin of these results see publication PMC5834943 (ACS chemical biology, 2017).
